Measured values taken from ChEMBL document CHEMBL6092159, “Design, synthesis, and biological evaluation of novel iNOS inhibitors as potent neuroprotective agents for ischemic stroke” (Eur J Med Chem, 2024).
Converted amounts (≈) assume the structure as drawn. The source made the active and inactive calls. The calls are words filed in the database; no cut-off is given here.

Tests used:
[1] = system: Rattus norvegicus; experiment: (§1) Anti-cerebral ischemia activity in rat tMCAO (transient middle cerebral artery occlusion) model assessed as reduction in cerebral infarct area at 5 mg/kg, iv treated after 2 hrs ischemia followed by reperfusion measured after 24 to 72 hrs of post-reperfusion by TTC staining based multiple-dose experiment; type: functional, organism-based; conditions: time 26-74 hrs
[2] = Solubility of the compound by HPLC based dissolution test; type: physicochemical
[3] = system: Rattus norvegicus; experiment: Anti-cerebral ischemia activity in rat tMCAO (transient middle cerebral artery occlusion) model assessed as reduction in cerebral infarct area in presence of 1400W at 5 mg/kg, iv treated after 2 hrs ischemia followed by reperfusion measured after 24 hrs of post-reperfusion by single-dose experiment; type: functional, organism-based; conditions: time 26.0 hrs
[4] = system: SH-SY5Y; experiment: Antioxidant activity in human SH-SY5Y cells assessed as reduction in OGD/R-induced LDH level at 1 uM incubated for 3 hrs followed by washout cells cultured in glucose and FBS-free medium measured after 24 hrs by colorimetric assay; type: functional, cell-based
[5] = system: SH-SY5Y; experiment: Antioxidant activity in human SH-SY5Y cells assessed as reduction in OGD/R-induced ROS level at 1 uM incubated for 3 hrs followed by washout cells cultured in glucose and FBS-free medium measured after 24 hrs by DCFH-DA probe based fluorescence microscopy assay; type: functional, cell-based
[6] = system: SH-SY5Y; experiment: […] effect in human SH-SY5Y cells assessed as reduction in OGD/R-induced caspase-3 activity using substrate GreenNuc Caspase-3 Substrate is a peptide DEVD coupled with a DNA green fluorescent dye at 1 uM incubated for 3 hrs followed by washout cells cultured in glucose and FBS-free medium measured after 24 hrs by […] assay; type: functional, cell-based
[7] = system: Rattus norvegicus; experiment: Anti-cerebral ischemia activity in rat tMCAO (transient middle cerebral artery occlusion) model assessed as reduction in cerebral infarct area at 5 mg/kg, iv treated after 2 hrs ischemia followed by reperfusion measured after 24 hrs of post-reperfusion by single-dose experiment; type: functional, organism-based; conditions: time 26.0 hrs
[8] = system: BV-2; experiment: Neuroprotective effect in mouse BV-2 cells assessed as reduction in OGD/R-induced damage by measuring increase in cell viability at 10 uM incubated for 3 hrs followed by washout cells cultured in glucose and FBS-free medium measured after 24 hrs by CCK8 assay; type: functional, cell-based
[9] = system: Rattus norvegicus; experiment: Anti-cerebral ischemia activity in rat tMCAO (transient middle cerebral artery occlusion) model assessed as reduction in cerebral infarct area at 9.98 mg/kg, iv treated after 2 hrs ischemia followed by reperfusion measured after 24 hrs of post-reperfusion by single-dose experiment; type: functional, organism-based; conditions: time 26.0 hrs
[10] = system: SH-SY5Y; experiment: Neuroprotective effect in human SH-SY5Y cells assessed as reduction in OGD/R-induced damage by measuring increase in cell viability at 10 uM incubated for 3 hrs followed by washout cells cultured in glucose and FBS-free medium measured after 24 hrs by CCK8 assay; type: functional, cell-based
[11] = system: SH-SY5Y; experiment: Neuroprotective effect in human SH-SY5Y cells assessed as reduction in OGD/R-induced damage by measuring increase in cell viability at 1 uM incubated for 3 hrs followed by washout cells cultured in glucose and FBS-free medium measured after 24 hrs by CCK8 assay; type: functional, cell-based
[12] = target: Nitric oxide synthase, inducible (Homo sapiens, UniProt P35228); experiment: Inhibition of iNOS (unknown origin) assessed as nitric oxide production at 1 uM by hemoglobin capture assay
Nitric oxide synthase, inducible, sequence (P35228 whole entry): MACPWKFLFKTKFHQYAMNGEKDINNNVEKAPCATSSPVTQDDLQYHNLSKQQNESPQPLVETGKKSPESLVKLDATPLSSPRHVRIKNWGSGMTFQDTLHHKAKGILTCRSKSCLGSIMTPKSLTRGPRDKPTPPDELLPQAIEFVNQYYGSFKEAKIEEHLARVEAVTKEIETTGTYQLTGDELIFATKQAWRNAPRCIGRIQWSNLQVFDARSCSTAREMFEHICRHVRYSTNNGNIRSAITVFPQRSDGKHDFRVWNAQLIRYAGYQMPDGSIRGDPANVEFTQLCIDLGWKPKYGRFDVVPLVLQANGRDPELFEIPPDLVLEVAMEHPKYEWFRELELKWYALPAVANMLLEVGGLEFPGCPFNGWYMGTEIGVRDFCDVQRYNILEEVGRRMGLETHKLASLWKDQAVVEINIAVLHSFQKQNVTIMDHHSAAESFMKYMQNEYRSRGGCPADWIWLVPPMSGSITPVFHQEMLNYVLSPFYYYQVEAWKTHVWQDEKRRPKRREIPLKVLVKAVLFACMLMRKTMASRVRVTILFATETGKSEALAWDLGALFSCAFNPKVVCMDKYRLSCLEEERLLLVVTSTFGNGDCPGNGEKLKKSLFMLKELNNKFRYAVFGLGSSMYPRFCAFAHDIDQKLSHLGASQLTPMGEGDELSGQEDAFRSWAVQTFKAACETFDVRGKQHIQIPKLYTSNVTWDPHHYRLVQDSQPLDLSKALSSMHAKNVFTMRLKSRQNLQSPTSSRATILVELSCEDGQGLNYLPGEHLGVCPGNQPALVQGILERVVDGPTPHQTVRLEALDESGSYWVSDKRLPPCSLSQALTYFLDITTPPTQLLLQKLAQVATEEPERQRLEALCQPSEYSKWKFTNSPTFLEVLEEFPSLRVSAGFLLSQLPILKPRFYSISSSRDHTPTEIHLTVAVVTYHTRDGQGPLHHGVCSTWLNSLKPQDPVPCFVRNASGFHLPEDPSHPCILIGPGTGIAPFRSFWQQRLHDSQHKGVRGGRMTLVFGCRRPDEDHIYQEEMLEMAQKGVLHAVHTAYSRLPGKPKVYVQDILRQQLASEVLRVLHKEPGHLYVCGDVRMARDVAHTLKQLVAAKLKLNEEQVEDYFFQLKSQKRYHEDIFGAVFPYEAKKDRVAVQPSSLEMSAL

[13] = Tmax in Sprague-Dawley rat at 10 mg/kg, iv measured after 24 hrs by LC-MS/MS analysis; type: ADME, organism-based; conditions: in vivo
[14] = system: Rattus norvegicus; experiment: Anti-cerebral ischemia activity in rat tMCAO (transient middle cerebral artery occlusion) model assessed as reduction in cerebral infarct area in presence of NBP at 6.58 mg/kg, iv treated after 2 hrs ischemia followed by reperfusion measured after 24 hrs of post-reperfusion by single-dose experiment; type: functional, organism-based; conditions: time 26.0 hrs
[15] = Apparent volume of distribution in Sprague-Dawley rat at 10 mg/kg, iv measured after 24 hrs by LC-MS/MS analysis; type: ADME, organism-based; conditions: in vivo, read-out: Vz
[16] = system: Rattus norvegicus; experiment: Anti-cerebral ischemia activity in rat tMCAO (transient middle cerebral artery occlusion) model assessed as reduction in cerebral infarct area at 6.58 mg/kg, iv treated after 2 hrs ischemia followed by reperfusion measured after 24 hrs of post-reperfusion by single-dose experiment; type: functional, organism-based; conditions: time 26.0 hrs
[17] = target: T1, Nitric oxide synthase 3 (Homo sapiens) (UniProt P29474); experiment: Inhibition of eNOS (unknown origin) assessed as nitric oxide production 1 uM by hemoglobin capture assay
T1 sequence (whole entry): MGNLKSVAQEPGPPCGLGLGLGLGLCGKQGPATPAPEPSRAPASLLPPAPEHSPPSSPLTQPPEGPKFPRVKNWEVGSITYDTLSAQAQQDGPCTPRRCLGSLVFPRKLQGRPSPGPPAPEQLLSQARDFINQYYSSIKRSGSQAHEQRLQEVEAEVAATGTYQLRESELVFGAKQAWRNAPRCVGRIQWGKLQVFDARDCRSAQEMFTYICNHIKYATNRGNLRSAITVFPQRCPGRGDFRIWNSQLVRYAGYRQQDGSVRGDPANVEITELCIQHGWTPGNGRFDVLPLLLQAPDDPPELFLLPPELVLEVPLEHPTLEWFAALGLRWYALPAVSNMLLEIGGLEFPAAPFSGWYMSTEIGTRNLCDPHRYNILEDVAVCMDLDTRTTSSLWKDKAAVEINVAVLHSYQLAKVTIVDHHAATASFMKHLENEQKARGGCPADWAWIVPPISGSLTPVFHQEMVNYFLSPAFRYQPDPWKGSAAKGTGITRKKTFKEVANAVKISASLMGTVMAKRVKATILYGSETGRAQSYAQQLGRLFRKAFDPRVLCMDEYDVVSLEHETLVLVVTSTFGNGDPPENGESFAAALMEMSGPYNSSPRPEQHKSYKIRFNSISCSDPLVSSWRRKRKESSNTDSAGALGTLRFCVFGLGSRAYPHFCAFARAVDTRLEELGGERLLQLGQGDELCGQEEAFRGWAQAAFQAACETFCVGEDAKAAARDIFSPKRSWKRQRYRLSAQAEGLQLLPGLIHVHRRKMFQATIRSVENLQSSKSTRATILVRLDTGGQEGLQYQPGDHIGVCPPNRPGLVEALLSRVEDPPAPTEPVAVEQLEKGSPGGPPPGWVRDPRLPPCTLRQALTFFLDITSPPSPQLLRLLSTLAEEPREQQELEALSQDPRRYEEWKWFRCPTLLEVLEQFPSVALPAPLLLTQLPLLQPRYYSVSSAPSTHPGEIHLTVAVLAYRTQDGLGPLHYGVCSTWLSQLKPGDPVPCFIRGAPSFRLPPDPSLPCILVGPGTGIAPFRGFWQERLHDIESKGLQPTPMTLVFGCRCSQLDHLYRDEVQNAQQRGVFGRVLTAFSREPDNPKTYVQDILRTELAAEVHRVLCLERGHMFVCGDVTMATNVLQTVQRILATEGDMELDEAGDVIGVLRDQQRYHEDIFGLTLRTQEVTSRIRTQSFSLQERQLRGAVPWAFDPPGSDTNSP

[18] = Clearance in Sprague-Dawley rat at 10 mg/kg, iv measured after 24 hrs by LC-MS/MS analysis; type: ADME, organism-based; conditions: in vivo
[19] = Ratio of drug concentration male Sprague-Dawley rat brain to blood at 3.4 mg/kg, iv measured after 24 hrs by LC-MS/MS analysis; type: ADME, organism-based
[20] = MRT (0 to t) in Sprague-Dawley rat at 10 mg/kg, iv measured after 24 hrs by LC-MS/MS analysis; type: ADME, organism-based; conditions: in vivo
[21] = MRT (0 to infinity) in Sprague-Dawley rat at 10 mg/kg, iv measured after 24 hrs by LC-MS/MS analysis; type: ADME, organism-based; conditions: in vivo
[22] = Ratio of drug concentration male Sprague-Dawley rat brain to blood at 5 mg/kg, iv measured after 24 hrs by LC-MS/MS analysis; type: ADME, organism-based
[23] = system: Rattus norvegicus; experiment: as §1, with “9.61” for “5”; type: functional, organism-based; conditions: time 26-74 hrs
[24] = system: Rattus norvegicus; experiment: as §1, with “9.61” for “5”, “24” for “24 to 72”, “measuring turn left counts test” for “TTC staining”, “experiment relative to MCAO group” for “experiment”; type: functional, organism-based
[25] = Metabolic stability in rat liver microsomes assessed as half life; type: ADME, Microsome
[26] = target: Nitric oxide synthase 1 (Homo sapiens) (UniProt P29475); experiment: Inhibition of nNOS (unknown origin) assessed as nitric oxide production 1 uM by hemoglobin capture assay
Nitric oxide synthase 1 (Homo sapiens), sequence (P29475 whole entry): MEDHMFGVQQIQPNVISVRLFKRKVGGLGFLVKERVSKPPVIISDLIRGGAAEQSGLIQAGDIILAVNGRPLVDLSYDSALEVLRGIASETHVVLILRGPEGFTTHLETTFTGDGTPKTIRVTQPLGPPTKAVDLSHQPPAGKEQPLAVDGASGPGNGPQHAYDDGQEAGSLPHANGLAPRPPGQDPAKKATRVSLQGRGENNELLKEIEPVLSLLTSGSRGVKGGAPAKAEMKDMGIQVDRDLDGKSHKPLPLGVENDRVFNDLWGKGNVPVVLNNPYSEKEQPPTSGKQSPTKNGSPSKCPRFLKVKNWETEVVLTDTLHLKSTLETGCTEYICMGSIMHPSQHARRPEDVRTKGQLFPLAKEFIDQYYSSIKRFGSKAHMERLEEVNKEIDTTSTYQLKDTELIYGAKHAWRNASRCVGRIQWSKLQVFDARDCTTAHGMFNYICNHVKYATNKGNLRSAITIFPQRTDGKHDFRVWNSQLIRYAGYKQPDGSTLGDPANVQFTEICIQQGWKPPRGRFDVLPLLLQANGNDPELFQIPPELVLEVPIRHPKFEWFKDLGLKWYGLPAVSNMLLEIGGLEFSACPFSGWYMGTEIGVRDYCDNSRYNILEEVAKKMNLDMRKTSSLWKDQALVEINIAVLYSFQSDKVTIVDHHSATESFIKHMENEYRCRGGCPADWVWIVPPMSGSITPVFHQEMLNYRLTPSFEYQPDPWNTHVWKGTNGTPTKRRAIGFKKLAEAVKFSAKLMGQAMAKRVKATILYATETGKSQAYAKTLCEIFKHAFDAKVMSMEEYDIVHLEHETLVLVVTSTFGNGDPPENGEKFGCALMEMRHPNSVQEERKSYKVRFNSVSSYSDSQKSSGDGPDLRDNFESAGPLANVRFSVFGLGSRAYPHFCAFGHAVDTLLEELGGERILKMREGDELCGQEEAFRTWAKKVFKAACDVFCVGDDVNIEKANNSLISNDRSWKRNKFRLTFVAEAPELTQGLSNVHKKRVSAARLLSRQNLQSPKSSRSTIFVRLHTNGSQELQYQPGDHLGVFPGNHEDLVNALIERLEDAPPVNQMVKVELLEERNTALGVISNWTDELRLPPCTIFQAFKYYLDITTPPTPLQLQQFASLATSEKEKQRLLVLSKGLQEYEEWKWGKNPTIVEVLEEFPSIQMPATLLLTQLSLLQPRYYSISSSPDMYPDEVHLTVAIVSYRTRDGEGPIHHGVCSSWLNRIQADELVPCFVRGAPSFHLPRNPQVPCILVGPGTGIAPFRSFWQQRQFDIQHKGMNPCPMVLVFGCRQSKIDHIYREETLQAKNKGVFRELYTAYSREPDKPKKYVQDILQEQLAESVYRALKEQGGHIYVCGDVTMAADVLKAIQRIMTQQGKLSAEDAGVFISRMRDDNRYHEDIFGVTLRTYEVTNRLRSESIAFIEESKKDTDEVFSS

[27] = Half life in Sprague-Dawley rat at 10 mg/kg, iv measured after 24 hrs by LC-MS/MS analysis; type: ADME, organism-based; conditions: in vivo
[28] = system: Rattus norvegicus; experiment: as §1, with “9.61” for “5”, “after” for “after 24 to”, “measuring turn left counts test” for “TTC staining”, “experiment relative to MCAO group” for “experiment”; type: functional, organism-based
[29] = system: Rattus norvegicus; experiment: as §1, with “9.61” for “5”, “after” for “after 24 to”, “measuring modified neurological severity score (mNSS) test” for “TTC staining”, “experiment relative to MCAO group” for “experiment”; type: functional, organism-based
[30] = system: Rattus norvegicus; experiment: as §1, with “9.61” for “5”, “24” for “24 to 72”, “measuring modified neurological severity score (mNSS) test” for “TTC staining”, “experiment relative to MCAO group” for “experiment”; type: functional, organism-based
[31] = Stability in rat plasma assessed as half life; type: ADME, cell-free
[32] = system: Rattus norvegicus; experiment: Anti-cerebral ischemia activity in rat tMCAO (transient middle cerebral artery occlusion) model assessed as reduction in cerebral infarct area at 9.61 mg/kg, iv treated after 2 hrs ischemia followed by reperfusion measured after 24 hrs of post-reperfusion by single-dose experiment; type: functional, organism-based; conditions: time 26.0 hrs

Row | SMILES | solubility [2] [mg/mL] | Activity [4] | Activity [5] | Activity [6] | Activity [8] | Activity [10] | Activity [11] | IC50 [12] [nM] | Tmax [13] [min] | Vd [15] [L/kg] | Activity [17] | CL [18] [mL/min/kg] | MRT last at 24 h [20] [h] | MRT inf [21] [h] | also measured
1 | CCCCC1OC(=O)c2ccccc21 (racemic) [RAC-3-N-BUTYLPHTHALIDE] | 0.25 (≈ 1.31 mM) | Active | Active | Active |  |  |  |  |  |  |  |  |  |  | Activity [1]: Active; Activity [3]: Active; Activity [7]: Active
2 | CCCCC1OC(=O)c2cc(NC(=O)c3cccc(CNC(C)=N)c3)ccc21 (centres undefined) |  | Active |  |  | Active; Compound Exhibit Similar Protective Effects As Nbp And 1400W | Active | Active; Compound Demonstrating Comparable Protective Effects To Nbp And 1400W | 245 |  |  |  |  |  |  | Activity [9]: Active
3 | CCCCC1OC(=O)c2cc(NCc3cccc(NC(C)=N)c3)ccc21 (centres undefined) |  |  |  |  |  | Active |  | 275 |  |  |  |  |  |  | 
4 | CC(=N)NCc1cccc(CN)c1 [1400W] |  | Active | Active | Active |  |  |  |  | 4.98 | 21.7 | inactive | 90.12 | 0.96 | 1.11 | Activity [14]: Active; Activity [16]: Active; BBR [19]: 10.96%
5 | CCCCC1OC(=O)c2cc(NCc3cccc(CNC(C)=N)c3)ccc21 (centres undefined) | 30 (≈ 82.1 mM) | Active | Active | Active | Active; Compound Exhibit Similar Protective Effects As Nbp And 1400W | Active | Active; Compound Demonstrating Comparable Protective Effects To Nbp And 1400W | 171 | 4.98 | 32.4 | inactive | 71.33 | 1.62 | 1.91 | BBR [22]: 27.36%; Activity [23]: Active; Efficacy Of Compound Superior Than Nbp Group; Activity [24]: Active; half-life [25]: 2 h; inhibition [26]: 3.64%; half-life [27]: 5.21 h; Activity [28]: Active; Activity [29]: Active; Activity [30]: Active; half-life [31]: 23 h; Activity [32]: Active
6 | CCCCC1OC(=O)c2cc(NC(=O)c3cccc(NC(C)=N)c3)ccc21 (centres undefined) |  |  |  |  |  | Active |  | 474 |  |  |  |  |  |  | 
